To fix the notation:
B1: P76 (peptide, listed as Homo sapiens)
chain: VFFKRAAEGFFRMNKLKESSDTNPKPYCMAAPMGLTENNRNRKKSYRETNLKAVSWPLNHT
B2: P77 (peptide, listed as Homo sapiens)
chain: VFFKRAAEGFFRMNKLKESSDTNPKPYCMAAPMGLTENNRNRKKSYRETNLKAVSWPLNHT
B3: P19 (peptide, listed as Homo sapiens)
chain: WTPIPVLTRWPLPHPPPWRRATSCRMARSSPSATSGSSVRRRCSSLPSWVWNLAASTRPRSTPS

In one assay the test system is CD8+ T cells in PBMCs from patients with metastatic castrate-resistant prostate cancer. As to the kind of experiment: Patient PBMC restimulation assay (TNFα+IFNγ+ CD8+ T cells). In kind it is cell-based, human. Particulars: TNFα+IFNγ+CD8+ T cells; highest across PBMC donors; 9mer peptide. As to the method:
PBMCs from human patients with metastatic castrate-resistant prostate cancer were thawed using media (RPMI 1640 supplemented with Glutamax, 10% HI FBS, and IX Sodium Pyruvate). Cells were counted and plated in a 96 well round bottom microplate at a concentration of 250,000 viable cells per well. Lyophilized peptides were solubilized in 100% DMSO and diluted in media to 10 μg/mL. Neoantigen peptides were added in equal volume to PBMCs for a final concentration of 5 μg/mL. CEF Peptide Pool “Plus” (Cellular Technologies, Ltd.) was utilized as a positive control and DMSO at the same final concentration as the experimental peptides was utilized as a negative control. Human IL-15 (Peprotech) was added to all wells at final concentration of 10 ng/mL.
Plates were incubated at 37° C. (5% CO2) for a total of 13 days. Media was refreshed every 2 days with IL-15 (10 ng/mL final concentration) and IL-2 (R&D systems, 10 IU/mL final concentration). On day 12, PBMCs were re-stimulated with identical experimental peptides or controls, at same concentration as peptide stimulation on Day 1. After 1-hour incubation, protein Inhibitor Cocktail (eBioscience) was added to every well and plate was incubated overnight.
On day 13, cells were stained for intracellular flow cytometry analysis. The cells were washed with PBS and stained with Live/Dead Fixable Aqua Dead Cell stain (ThermoFisher). Following the live/dead stain, cells were blocked using Biotin-Free Fc Receptor Blocker (Accurate Chemical & Scientific Corp). Extracellular cellular flow panel (1 μL/antibody per well in 50 μL) consisted of CD3 PerCP-Cy5.5 (Biolegend), CD4 BV421 (Biolegend), and CD8 APC-Cy7 (Biolegend). After extracellular staining, cells were fixed using Foxp3/Transcription Factor Staining Buffer Set (eBioscience) and stained for intracellular proteins (1:50 dilution) using TNFα FITC (R&D Systems) and IFNγ BV785 (Biolegend). Cells were washed and resuspended in stain buffer and analyzed using a BD Celesta flow cytometer.
Flow cytometry cell staining analysis was completed using Flow Jo v10. Cells were gated on live, singlet, CD3+ cells. The CD8+ T cells were analyzed for TNFα/IFNγ expression and the frequency of double positive TNFα/IFNγ CD8+ T cells was recorded. Responses were assessed to be positive when the frequency of double positive TNFα/IFNγ CD8+ T cells due to stimulation with an experimental peptide was increased greater than or equal to 2-fold over the DMSO only negative control for that patient. Peptides were analyzed in 1 to 7 patient samples.
The 9 mer fragments shown in Table 13 were assessed for their ability to activate T cells using the Patient PBMC restimulation assay described in Example 1 using TNFα and IFNγ production by CD8^+ T cells as a readout. Self-antigens shown in Table 15 were also used in the assays. […] PBMCs from ten patients were evaluated.
“SLYHREKQLIAMDSAI (listed as Homo sapiens) [Neoantigen P22]”: the “Maximum fold change over negative control” value (“Maximum fold change” for short) is reported as 5.00.

In the case of B1, the “Maximum fold change” value worked out at 2.30.

As for B2, the “Maximum fold change” value came to 3.24.

The assay is the same for the next values; noted with them: greatest frequency among all tested PBMC donors; 9mer peptide.
On to “P61 (MFENGCYLGRQKRFKCE; listed as Homo sapiens) [Neoantigen P61]”, for which the “Maximum frequency of TNFα+IFNγ+CD8+ T cells (Percent)” value (“Maximum frequency … (Percent)” below) turned out to be 0.084%.

As to “P50 (QMAVIQYSCMGLMVFAM; listed as Homo sapiens) [Neoantigen P50]”, the “Maximum frequency … (Percent)” value is on record as 0.190%.

Turning to “P46 (DDRNTFDIVWWCPMSRLRLALTVPPSTTTTCVTVPAWAA; listed as Homo sapiens) [Neoantigen P46]”, the “Maximum frequency … (Percent)” value was found to be 0.140%.

With “YEAGMTLGGKILFFLFLLLPLSPFSLIF (listed as Homo sapiens) [Neoantigen P87]”, the “Maximum frequency … (Percent)” value is reported as 0.120%.

As to “P48 (VQPIARELYQFTFDLLI; listed as Homo sapiens) [Neoantigen P48]”, the “Maximum frequency … (Percent)” value is 0.220%.

For the molecule “GVPGDSTRRAVRRMNTF (listed as Homo sapiens) [Neoantigen P16]”, the “Maximum frequency … (Percent)” value is given as 4.620%.

As for “YEAGMTLGEKFRVGNCKHLKMTRP (listed as Homo sapiens) [Neoantigen P82]”, the “Maximum frequency … (Percent)” value is reported as 0.970%.

For the molecule “P97 (GYLRMQGLMAQRLLLR; listed as Homo sapiens) [Neoantigen P97]”, the “Maximum frequency … (Percent)” value stood at 0.160%.

Take “SLYHREKQLIAMDSAI (listed as Homo sapiens) [Neoantigen P22]”: the “Maximum frequency … (Percent)” value worked out at 0.120%.

On to “P73 (DSSGNLLERNSFEVRV; listed as Homo sapiens) [Neoantigen P73]”, for which the “Maximum frequency … (Percent)” value came out at 0.110%.

Turning to “P59 (LHPDSGNMVENGCYLRR; listed as Homo sapiens) [Neoantigen P59]”, the “Maximum frequency … (Percent)” value was found to be 3.010%.

Regarding “P37 (MAGGVLRRLLCREPDRDGDKGASREETVVPLHIGDPVVLPGIGQCYSALF; listed as Homo sapiens) [Neoantigen P37]”, the “Maximum frequency … (Percent)” value is 1.160%.

Take “P58 (MMAEIISVHVPKILSGK; listed as Homo sapiens) [Neoantigen P58]”: the “Maximum frequency … (Percent)” value is on record as 5.370%.

Turning to “NSKMALNSLNSIDDAQLTRIAPPRSHCCFWEVNAP (listed as Homo sapiens) [Neoantigen P35]”, the “Maximum frequency … (Percent)” value is 0.064%.

For the molecule “P27 (LHPQRETFTPRWSGANYWKLAFPVGAEGTFPAAATQRGVVRPA; listed as Homo sapiens) [Neoantigen P27]”, the “Maximum frequency … (Percent)” value was found to be 0.430%.

For the molecule “P17 (GVPGDSTRRAVRRMNTF; listed as Homo sapiens) [Neoantigen P17]”, the “Maximum frequency … (Percent)” value turned out to be 0.130%.

On to “P56 (PKSEVRAKCKFSILNAK; listed as Homo sapiens) [Neoantigen P56]”, for which the “Maximum frequency … (Percent)” value was 1.620%.

Turning to “P60 (CYLRRQKRLKCEKQPGA; listed as Homo sapiens) [Neoantigen P60]”, the “Maximum frequency … (Percent)” value was 0.340%.

Regarding B1, the “Maximum frequency … (Percent)” value is on record as 0.170%.

Regarding B2, the “Maximum frequency … (Percent)” value worked out at 0.160%.

B3: the “Maximum frequency … (Percent)” value is 0.480%.

In the next assay the target is HLA-B*07:02 (Homo sapiens, UniProt P01889). As to the kind of experiment: In vitro binding to class I MHC (UV peptide exchange, HLA class I ELISA). The note with it: 100% = same binding as positive control peptide. As to the method: The 9 mer peptides identified by bioinformatics analysis were analyzed for their binding propensities to 6 common HLA class I alleles (HLA-A*01:01, A*02:01, A*03:01, A*24:02, B*07:02, B*08:01). The principle of the method is briefly described below and consists of two parts, one involving exchange of peptide with a positive control induced by Ultraviolet (UV) radiation, and the second is an enzyme immunoassay to detect stable HLA-peptide and empty HLA complexes. HLA-bound peptides are critical for the stability of the HLA complex. A conditional HLA class I complex was stabilized by an UV-labile peptide utilizing a different peptide (Pos) for each HLA (Pos: HLA-A*01:01: […](SEQ ID NO: 409), HLA-A*02:01: […] (SEQ ID NO: 410), HLA-A*03:01: […] (SEQ ID NO: 411), HLA-A*24:02: […] (SEQ ID NO: 412), HLA-B*07:02: […] (SEQ ID NO: 413), HLA-B*08:01: […] (SEQ ID NO: 414), which could be cleaved by UV irradiation when bound to the HLA molecule. Upon cleavage, the resulting peptide fragments dissociated from the HLA class I complex since their length was insufficient to bind stably to HLA. Under the conditions in which peptide cleavage was performed (neutral pH, on melting ice), the peptide-free HLA complex remained stable.
The exchange efficiency between the peptide of interest and Pos was analyzed using an HLA class I ELISA. The combined technologies allowed the identification of ligands for an HLA molecule of interest which are potentially immunogenic.
Exchange control peptide Pos was a high affinity binder to the relevant HLA class I allele while exchange control peptide Neg was a non-binder. The UV control represented UV-irradiation of conditional HLA class I complex in the absence of a rescue peptide.
The HLA class I ELISA is an enzyme immunoassay based on the detection of beta2-microglobulin (B2M) of (peptide-stabilized) HLA class I complexes. To this end streptavidin was bound onto polystyrene microtiter wells. After washing and blocking, HLA complex present in exchange reaction mixtures or ELISA controls was captured by the streptavidin on the microtiter plate via its biotinylated heavy chain. Non-bound material was removed by washing. Subsequently, horseradish peroxidase (HRP)-conjugated antibody to human B2M was added. The HRP-conjugated antibody binds only to an intact HLA complex present in the microtiter well because unsuccessful peptide exchange results in disintegration of the original UV-sensitive HLA complex upon UV illumination. In the latter case B2M was removed during the washing step. After removal of non-bound HRP conjugate by washing, a substrate solution was added to the wells. A colored product formed in proportion to the amount of intact HLA complex present in the samples. After the reaction was terminated by the addition of a stop solution, absorbance was measured in a microtiter plate reader. The absorbance was normalized to the absorbance of an exchange control peptide (represents 100%). Suboptimal HLA binding of peptides with a moderate to low affinity for HLA class I molecules can also be detected by this ELISA technique (Rodenko, B et al. (2006) Nature Protocols 1: 1120-32).
Peptides that had 10% or greater exchange efficiency in one of the 6 HLA alleles were considered for further immunogenicity testing and analysis.
Binding of select neoepitopes to HLA-A*01:01, HLA-A*02:01, HLA-A*03:01, HLA-A*24:02, HLA-B*07:02 and HLA-B*08:01 was evaluated using the assay described in Example 1. […] As a criterion for further evaluation, peptides with an exchange rate of at least 10% with the corresponding Pos peptide for at least one of the 6 HLA alleles that we considered for further evaluation. The exchange rates with the allele specific Pos peptides, of the 24 neoantigens so identified are summarized below in Table 17. Higher percentages correspond to stronger binding to the HLA allele.
A general note: In an ELISA, binding on a coated surface is turned into a signal by an enzyme label.
With “SLYHREKQLIAMDSAI (listed as Homo sapiens) [Neoantigen P22]”, the “Exchange rate with allele specific Pos peptide, HLA-B*07:02” value is recorded as 8.3%.
